Measured values taken from US4064255A, “Compositions containing new indole derivatives and their use in pharmacology” (Mar-Pha Societe d'Etudes et d'Exploitation de Marques, priority 1975, dated 1977).
Like-named read-outs stand apart in the source and are kept apart here.

What was measured:
[1] = tested on: noradrenaline (NA) recapture by brain synaptosomes; assay: in vitro inhibition of noradrenaline uptake (recapture) by rat-brain synaptosomes; assay type: biochemical; conditions: read-out: I50, dose inhibiting 50% of recapture by brain synaptosomes of noradrenaline (NA)
Description: (§1) The entire disclosure of Kannengiesser et al is relied on in this connection and incorporated herein by reference.

[2] = tested on: dopamine (DA) recapture by brain synaptosomes; assay: in vitro inhibition of dopamine uptake (recapture) by rat-brain synaptosomes; assay type: biochemical; conditions: read-out: I50, dose inhibiting 50% of recapture by brain synaptosomes of dopamine (DA)
Description: as §1

5-HTP hypermotility = assay: potentiation of 5-HTP hypermotility in mice; assay type: in vivo, male mouse CD1 (Charles River); conditions: 30 min after 5-HTP 150 mg/kg i.p., motility 45th-75th minute
Procedure: The effectiveness of the compounds of the present invention in blocking serotonine uptake also was shown using the potentiation test of 5-hydroxy tryptophane (5-HTP).
1, 11-1972. This test consists of looking for the potentiation of the hypermotility induced by 5-HTP. for high dosages the precursor will induce very characteristic hypermotility with jumps.
The animals are divided into groups of 25 mice and treated i.p. with 150 mg/kg of 5-HTP. The products to be tested are administered sub-cutaneously, 30 minutes after the 5-HTP, the control group receiving only the administrative vehicle. The overall motility of the animals is measured from the 45th to the 75th minute after (administration of) the 5-HTP. The results for the treated groups are shown in % increase in motility with respect to the control group.

[3] = acute toxicity in mice (LD50); assay type: in vivo, male mouse CD1 (Charles River); conditions: mouse, in vivo, male CD1 mice, three days' observation
Procedure: (§2) The toxicity and acute symptomatologies of the compounds of the invention were determined in the male mouse CD1 (Charles River) in intravenous and oral manner. The LD50 were computed following three days' observation by the cumulative method of Reed & Muench (Am. J. Hyg. 27, 493, 1938).

[4] = tested on: serotonin (5HT) recapture by brain synaptosomes; assay: in vitro inhibition of serotonin uptake (recapture) by rat-brain synaptosomes; assay type: biochemical; conditions: for selectivity of action on cerebral serotonin: in words; for IC50: rat-brain synaptosomes, 5HT, read-out: I50, dose inhibiting 50% of recapture by brain synaptosomes of serotonin (5HT)
Description: as §1

mice = assay: acute toxicity in mice (LD50); assay type: in vivo, male mouse CD1 (Charles River); conditions: intravenous, male CD1 mice, three days' observation; 4320 min
Procedure: as §2

[5] = intravenous, read-out: LD50 I.V.

| Compound | IC50 [1] [µM] | IC50 [2] [µM] | Potentiation of 5-HTP hypermotility, % change with respect to controls (5-HTP hypermotility; 15 mg/kg s.c.) | LD50 at 72 h [3, 5] [mg/kg] | LD50 at 72 h ([3]; oral, read-out: LD50 orally) [mg/kg] | selectivity of action on cerebral serotonin [4] | IC50 [4] [µM] | LD50 I.V. (mice) [mg/kg] | Potentiation of 5-HTP hypermotility, % change with respect to controls (5-HTP hypermotility; 5 mg/kg s.c.) | Potentiation of 5-HTP hypermotility, % change with respect to controls (5-HTP hypermotility; 25 mg/kg s.c.) |
| --- | --- | --- | --- | --- | --- | --- | --- | --- | --- | --- |
| CN(C)CCCN1c2ccccc2CCc2ccc(Cl)cc21 [Clomipramine, reference compound] | 7 | 5 | +190% | 45 | 380 | – | – | – | – | – |
| O=C(CC1CCNCC1)c1c[nH]c2ccccc12 [Example 1, INDOLYL-3 (PIPERIDYL-4 METHYL) KETONE] | 20 | 65 | – | – | – | act more selectively than clomipramine | 0.08 | 47 | – | – |
| COc1ccc2[nH]cc(C(=O)CC3CCNCC3)c2c1 [Example 2, (METHOXY-5 INDOLYL-3) (PIPERIDYL-4 METHYL) KETONE] | 160 | 70 | – | 44 | > 900 | – | 0.65 | – | – | – |
| O=C(CC1CCNCC1)c1c[nH]c2ccc(Cl)cc12 [Example 3, (CHLORO-5 INDOLYL-3) (PIPERIDYL-4 METHYL) KETONE] | 30 | 12 | – | – | 300 to 900 | – | 0.6 | – | – | – |
| Cn1cc(CCC2CCNCC2)c2ccccc21 [Example 9, [(METHYL-1 INDOLYL-3)-2 ETHYL]-4 PIPERIDINE] | 60 | 60 | – | 44 | 225 | act more selectively than clomipramine | 0.02 | – | +134% | +296% |
| c1ccc2c(CCC3CCNCC3)c[nH]c2c1 [Example 10, [(INDOLYL-3)-2 ETHYL]-4 PIPERIDINE] | 8 | 4 | – | 60 | 600 | act more selectively than clomipramine | 0.04 | – | +196% | +262% |
| c1ccc2c(CC3CCNCC3)c[nH]c2c1 [Example 11, (INDOLYL-3 METHYL) -4 PIPERIDINE] | 5 | 4 | – | 57 | 225 | – | 0.15 | – | – | – |
| c1ccc2c(CCCC3CCNCC3)c[nH]c2c1 [Example 13, [(INDOLYL-3)-3 PROPYL]-4 PIPERIDINE] | 13 | 5.5 | – | – | – | act more selectively than clomipramine | 0.04 | – | – | – |
